Experimental data taken from the supplement of paper PMC8633005.

How the values were obtained:
Experiment in all cases: drug sensitivity score (DSS) (DSS (unitless, 0-50 scale)); higher = more sensitive (stronger viability inhibition); extreme values may be limits of the assay
Conditions in all cases: 72 h; culture: 2D
[1] = system: WM852
How it was run: (§1)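 Melanoma cell lines and patient-derived melanoma cultures at 1000–1500 cells per well were exposed in 2D, in 384-well plates, to a 527-compound oncology library at five concentrations spanning a 10,000-fold range for 72 h at 37 °C. CellTiter-Glo luminescence then measured viability. From dose-response curves fitted in the in-house Breeze software, a drug sensitivity score, a modified area-under-curve measure, was obtained.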

[2] = system: SK-MEL-2
How it was run: as §1

[3] = system: FM-MEL-6
How it was run: as §1

[4] = system: SK-MEL-28
How it was run: as §1

[5] = system: FM-MEL-2
How it was run: as §1

[6] = system: FM-MEL-3
How it was run: as §1

[7] = system: Bowes
How it was run: as §1

[8] = system: WM165
How it was run: as §1

Structure (SMILES) | drug sensitivity score [1] | drug sensitivity score [2] | drug sensitivity score [3] | drug sensitivity score [4] | drug sensitivity score [5] | drug sensitivity score [6] | drug sensitivity score [7] | drug sensitivity score [8]
COC(=O)c1ccc([C@H]2c3[nH]c4ccccc4c3C[C@H](C(=O)OC)N2C(=O)CCl)cc1 [RSL3] | 0 | 0 | 0 | 0 | 0 | 0 | 0 | 0
Cc1cnc(NC(=O)Nc2cc(Br)c(C)cc2OC[C@@H]2CNCCO2)cn1 [Rabusertib] | 2.4 | 0 | 0 | 0 | 0 | 1.5 | 0.9 | 0
Cc1cn(-c2cc(NC(=O)c3ccc(C)c(Nc4nccc(-c5cnccn5)n4)c3)cc(C(F)(F)F)c2)cn1 [Radotinib] | 0 | 0 | 2.6 | 0 | 5 | 8.6 | 0 | 0
CC(C)(C)Cn1c(N)nc2ccc(-c3[nH]c(C(C)(C)C)nc3-c3ccc(F)cc3)nc21 [Ralimetinib] | 1 | 0 | 0 | 2 | 5.4 | 6.1 | 0 | 2.9
O=C(c1ccc(OCCN2CCCCC2)cc1)c1c(-c2ccc(O)cc2)sc2cc(O)ccc12 [Raloxifene] | 1.9 | 0 | 1.8 | 1.3 | 2.1 | 4.7 | 0 | 2
Cc1nc(=O)c2cc(CN(C)c3ccc(C(=O)N[C@@H](CCC(=O)O)C(=O)O)s3)ccc2[nH]1 [Raltitrexed] | 0 | 0 | 0 | 3.9 | 0 | 0 | 23.9 | 8.4
Cn1nccc1Nc1nccc(-c2ccn([C@H](CO)c3ccc(Cl)c(F)c3)c(=O)c2)n1 [Ravoxertinib] | 1.9 | 5.2 | 5.6 | 13.1 | 11.9 | 12.4 | 1.7 | 12
CNC(=O)c1cc(Oc2ccc(NC(=O)Nc3ccc(Cl)c(C(F)(F)F)c3)c(F)c2)ccn1 [Regorafenib] | 1.8 | 2.8 | 3.7 | 4.6 | 8.5 | 12.9 | 6.7 | 5.3
CCOC(=O)C1=CCCC[C@H]1S(=O)(=O)Nc1ccc(F)cc1Cl [Resatorvid] | 0 | 0 | 0 | 0 | 0 | 0 | 0 | 0
CCOCc1nc2c(N)nc3ccccc3c2n1CC(C)(C)O [Resiquimod] | 0.4 | 0 | 0.2 | 0 | 0 | 0 | 0.1 | 0
CN(C)Cc1ccc(S(=O)(=O)n2ccc(/C=C/C(=O)NO)c2)cc1 [Resminostat] | 2.7 | 7.9 | 7.3 | 4.8 | 6.9 | 6.5 | 2.7 | 9.7
CN(C)C(=O)c1cc2cnc(Nc3ccc(N4CCNCC4)cn3)nc2n1C1CCCC1 [Ribociclib] | 0.7 | 0 | 1.6 | 5.4 | 4.3 | 2.3 | 0 | 2.8
CO[C@H]1C[C@@H]2CC[C@@H](C)[C@@](O)(O2)C(=O)C(=O)N2CCCC[C@H]2C(=O)O[C@H]([C@H](C)C[C@@H]2CC[C@@H](OP(C)(C)=O)[C@H](OC)C2)CC(=O)[C@H](C)/C=C(\C)[C@@H](O)[C@@H](OC)C(=O)[C@H](C)C[C@H](C)/C=C/C=C/C=C/1C [Ridaforolimus] | 0 | 0 | 2.7 | 3.8 | 0.9 | 0 | 0 | 7.6
C[C@H]1CNCCCN1S(=O)(=O)c1cccc2cncc(F)c12 [Ripasudil] | 0 | 0 | 0 | 0 | 0 | 0 | 0 | 0.1
C=CC(=O)Nc1cccc(Nc2nc(Nc3ccc(N4CCN(C(C)=O)CC4)cc3OC)ncc2C(F)(F)F)c1 [Rociletinib] | 3 | 2.9 | 3.4 | 1.1 | 6.6 | 7.9 | 7.7 | 7.2
O=C(CCCCCCNC(=O)c1cnc(N(c2ccccc2)c2ccccc2)nc1)NO [Rocilinostat] | 2.3 | 3.4 | 6.6 | 3.7 | 2.8 | 6.4 | 2 | 5.7
C/C=C1\NC(=O)[C@H]2CSSCC/C=C/[C@H](CC(=O)N[C@H](C(C)C)C(=O)N2)OC(=O)[C@H](C(C)C)NC1=O [Romidepsin] | 17.9 | 30.4 | 26.5 | 29 | 28.1 | 29.7 | 18.6 | 30
Cc1nc(C(=O)NCC(=O)O)c(O)c2ccc(Oc3ccccc3)cc12 [Roxadustat] | 2.1 | 0 | 0 | 0 | 0 | 0 | 0 | 0
CN(C)C[C@@H]1CCn2cc(c3ccccc32)C2=C(C(=O)NC2=O)c2cn(c3ccccc23)CCO1 [Ruboxistaurin] | 6.7 | 4.7 | 7.6 | 9 | 7.2 | 6.5 | 4.5 | 8.6
CNCc1ccc(-c2[nH]c3cc(F)cc4c3c2CCNC4=O)cc1 [Rucaparib] | 0 | 0 | 0.7 | 0 | 0.8 | 0.5 | 0.6 | 3.8

Structure (SMILES) | drug sensitivity score [1] | drug sensitivity score [2] | drug sensitivity score [3] | drug sensitivity score [4] | drug sensitivity score [5] | drug sensitivity score [6] | drug sensitivity score [7] | drug sensitivity score [8]
N#CC[C@H](C1CCCC1)n1cc(-c2ncnc3[nH]ccc23)cn1 [Ruxolitinib] | 0.1 | 0 | 0 | 0 | 0 | 1.4 | 0.1 | 0
CC(C)N(CCCNC(=O)Nc1ccc(C(C)(C)C)cc1)C[C@H]1O[C@@H](n2cc(Br)c3c(N)ncnc32)[C@H](O)[C@@H]1O [SGC0946] | 2 | 0 | 0.8 | 0 | 1.4 | 6.1 | 0 | 0
COc1ccc(CCc2nc3cc(-c4c(C)noc4C)ccc3n2C[C@H](C)N2CCOCC2)cc1Cl [SGC-CBP30] | 0 | 0.1 | 3 | 0.9 | 4.9 | 7.4 | 3.6 | 5.2
CN1CCC(CNc2ccc3ncc(-c4cccc(OC(F)(F)F)c4)n3n2)CC1 [SGI-1776] | 6.1 | 4.8 | 5.3 | 6.1 | 5.9 | 5.1 | 5.5 | 6.1
CN(CC(=O)N(Cc1ccc(C2CCCCC2)cc1)c1ccc(C(=O)O)cc1)S(=O)(=O)c1c(F)c(F)c(F)c(F)c1F [SH-4-54] | 6.4 | 5.1 | 5.8 | 5.4 | 5.2 | 8.2 | 7.1 | 16.1
CCc1c2c(nc3ccc(O)cc13)-c1cc3c(c(=O)n1C2)COC(=O)[C@]3(O)CC [SN-38] | 8 | 17.3 | 19.7 | 17 | 11.8 | 24.6 | 19.7 | 42.7
CC(C)(C)c1cnc(CSc2cnc(NC(=O)C3CCNCC3)s2)o1 [SNS-032] | 18.2 | 19.2 | 26.1 | 18.9 | 12.7 | 19.2 | 31.8 | 25
Cc1cc2c(C(=O)NC[C@H](C)c3ccccc3)c(O)c(O)cc2c(O)c1-c1c(C)cc2c(C(=O)NC[C@H](C)c3ccccc3)c(O)c(O)cc2c1O [Sabutoclax] | 18 | 9.2 | 5.6 | 11.1 | 13 | 0.4 | 27.6 | 24.6
CC[C@@H](C(=O)[C@@H](C)[C@@H](O)[C@H](C)[C@@H]1O[C@@H]([C@@H](CC)C(=O)O)CC[C@@H]1C)[C@H]1O[C@]2(C=C[C@@H](O)[C@]3(CC[C@@](C)([C@H]4CC[C@](O)(CC)[C@H](C)O4)O3)O2)[C@H](C)C[C@@H]1C [Salinomycin] | 9.9 | 2.1 | 13.2 | 9.5 | 6.4 | 6.9 | 19.1 | 18.3
CC(C)n1nc(-c2ccc3oc(N)nc3c2)c2c(N)ncnc21 [Sapanisertib] | 8.6 | 7.9 | 11.1 | 10.2 | 10.1 | 9 | 13.2 | 11.7
CNC(=O)CN1CCC(Oc2cc3c(Nc4cccc(Cl)c4F)ncnc3cc2OC)CC1 [Sapitinib] | 0 | 0 | 0 | 0 | 0 | 0 | 0 | 0
CN1CCN(CCOc2cc(OC3CCOCC3)c3c(Nc4c(Cl)ccc5c4OCO5)ncnc3c2)CC1 [Saracatinib] | 1.8 | 0 | 0.9 | 4 | 2.3 | 0.8 | 0.3 | 2.8
CC1=C2C[C@H]3[C@@H](CC[C@@H]4C[C@H](NS(C)(=O)=O)CC[C@@]43C)[C@@H]2CC[C@@]2(C1)O[C@@H]1C[C@H](C)CN[C@H]1[C@H]2C [Saridegib] | 0 | 0 | 0 | 0 | 0 | 0 | 0 | 0.5
CC[C@H](CO)Nc1nc(NCc2ccccc2)c2ncn(C(C)C)c2n1 [Seliciclib] | 0 | 0 | 0 | 0 | 0.8 | 0 | 2.6 | 1.7
O=C(/C=C\n1cnc(-c2cc(C(F)(F)F)cc(C(F)(F)F)c2)n1)NNc1cnccn1 [Selinexor] | 8.2 | 13.3 | 8.4 | 9.2 | 9.6 | 11.5 | 12.4 | 18.7
Cc1cc(F)c(C(=O)Nc2cccc(-c3nncn3C(C)C)n2)cc1-n1cnc(C2CC2)c1 [Selonsertib] | 0 | 0 | 0 | 0 | 0 | 0 | 0 | 0
CN1CCN(C(=O)c2ccc3cc(CCNc4ncnc5ccc(C#N)cc45)ccc3c2)CC1 [Senexin B] | 0.9 | 0 | 0.1 | 0 | 1 | 1.2 | 0 | 0
COCC[n+]1c2c(n(Cc3cnccn3)c1C)C(=O)c1ccccc1C2=O [Sepantronium bromide] | 35.2 | 36.2 | 22.3 | 34.4 | 21.9 | 41 | 34.6 | 43.2
Nc1nc2cc(-c3ccc4ncc(C(=O)N5CCOCC5)n4c3)ccc2o1 [Serabelisib] | 0 | 0 | 0 | 0 | 0.5 | 0.3 | 0 | 0.1
O=C(O)c1ccc2c(c1)nc(Nc1cccc(Cl)c1)c1ccncc12 [Silmitasertib] | 2.4 | 2.7 | 3.4 | 2.3 | 3.2 | 9.2 | 3.3 | 7.3
